These results are taken from patent US7741327B2 (Hoffmann-La Roche Inc., priority 2008, dated 2010).

This test addresses T1, Recombinant human liver GK1 (GST-GK) (Homo sapiens, UniProt P35557).
T1 construct: made in house; host or cells: E. coli
T1 sequence (P35557 1-466 isoform P35557-2): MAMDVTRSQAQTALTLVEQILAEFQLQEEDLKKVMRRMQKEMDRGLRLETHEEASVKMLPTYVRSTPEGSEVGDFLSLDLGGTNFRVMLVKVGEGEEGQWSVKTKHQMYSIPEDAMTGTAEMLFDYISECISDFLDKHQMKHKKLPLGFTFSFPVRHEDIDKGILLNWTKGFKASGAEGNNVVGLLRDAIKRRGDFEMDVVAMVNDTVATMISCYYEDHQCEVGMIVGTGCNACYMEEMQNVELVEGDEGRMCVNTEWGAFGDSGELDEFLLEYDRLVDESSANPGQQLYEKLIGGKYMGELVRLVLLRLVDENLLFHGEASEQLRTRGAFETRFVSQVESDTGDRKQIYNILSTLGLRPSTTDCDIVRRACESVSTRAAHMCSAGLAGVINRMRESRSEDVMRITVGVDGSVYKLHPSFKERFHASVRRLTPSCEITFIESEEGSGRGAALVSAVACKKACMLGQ
Put plainly: In vitro glucokinase activity (G6PDH-coupled NADH assay). The conditions noted are these: 30° C., 5 mM D-glucose, 10% DMSO. Format: biochemical. The protocol: Glucokinase In Vitro Assay Protocol: Glucokinase (GK) was assayed by coupling the production of glucose-6-phosphate to the generation of NADH with glucose-6-phosphate dehydrogenase (G6PDH, 0.75-1 kunits/mg; Boehringer Mannheim, Indianapolis, Ind.) from Leuconostoc mesenteroides as the coupling enzyme (Scheme 2).
Recombinant human liver GK1 was expressed in E. coli as a glutathione S-transferase fusion protein (GST-GK) [Liang et al, 1995] and was purified by chromatography over a glutathione-Sepharose 4B affinity column using the procedure provided by the manufacturer (Amersham Pharmacia Biotech, Piscataway, N.J.).
The assay was conducted at 30° C. in a flat bottom 96-well tissue culture plate from Costar (Cambridge, Mass.) with a final incubation volume of 120 μL. The incubation reaction contained the following: 25 mM Hepes buffer (pH 7.1), 25 mM KCl, 5 mM D-glucose, 1 mM ATP, 1.8 mM NAD, 2 mM MgCl2, 1 μM sorbitol-6-phosphate, 1 mM dithiothreitol, test drug or 10% dimethylsulfoxide, ˜7 units/ml G6PDH, and GK (see below). All organic reagents were >98% pure and were from Boehringer Mannheim with the exceptions of D-glucose and Hepes which were from Sigma Chemical Co, St Louis, Mo. Test compounds were dissolved in dimethylsulfoxide and were added to the incubation reaction minus GST-GK in a volume of 12 μL to yield a final dimethylsulfoxide concentration of 10%. This mix was pre-incubated in the temperature controlled chamber of a SPECTRAmax 250 microplate spectrophotometer (Molecular Devices Corporation, Sunnyvale, Calif.) for 10 min to allow temperature equilibrium and then the reaction was started by the addition of 20 μL GST-GK.
After addition of enzyme, the increase in optical density (OD) at 340 nm was monitored spectrophotometrically to determine the rate of change (OD340 per min). The GK activity (OD340/min) in control wells (10% DMSO minus GK activators) was compared with the activity in wells containing test GK activators, and the concentration of activator that produced a 50% increase in the activity of GK, i.e., the SC1.5, was calculated. The table below provides the in vitro glucokinase activity for the compounds in the Examples: […]
For the molecule `CC(C)OCCn1ccc(NC(=O)[C@H](CC2CCCC2)N2CC(OC3CCCC3)=CC2=O)n1` [Example 20, (S)-3-Cyclopentyl-N-[1-(2-isopropoxy-ethyl)-1H-pyrazol-3-yl]-2-(4-cyclopentyloxy-2-oxo-2,5-dihydro-pyrrol-1-yl)-propionamide], the “SC1.5 (concentration of activator that produced a 50% increase in the activity of GK)” value turned out to be 1.388 µM.

Consider `COC(C)(C)Cn1ccc(NC(=O)[C@H](CC2CCCC2)N2CC(OC(C)C)=CC2=O)n1` [Example 22, (S)-3-Cyclopentyl-N-[1-(2-methoxy-2-methyl-propyl)-1H-pyrazol-3-yl]-2-(4-isopropoxy-2-oxo-2,5-dihydro-pyrrol-1-yl)-propionamide], for which the “SC1.5 (concentration of activator that produced a 50% increase in the activity of GK)” value is 1.048 µM.

As for `CC(C)OC1=CC(=O)N([C@@H](CC2CCCC2)C(=O)Nc2cnccn2)C1` [Example 23, (S)-3-Cyclopentyl-N-(pyrazin-2-yl)-2-(4-isopropoxy-2-oxo-2,5-dihydro-pyrrol-1-yl)-propionamide], the “SC1.5 (concentration of activator that produced a 50% increase in the activity of GK)” value is 5.216 µM.

Consider `CCCOC1=CC(=O)N([C@@H](CC2CCCCC2)C(=O)Nc2ccn(CC(C)(C)O)n2)C1` [Example 24, (S)-3-Cyclohexyl-N-[1-(2-hydroxy-2-methyl-propyl)-1H-pyrazol-3-yl]-2-(2-oxo-4-propoxy-2,5-dihydro-pyrrol-1-yl)-propionamide], for which the “SC1.5 (concentration of activator that produced a 50% increase in the activity of GK)” value was found to be 5.251 µM.

Take `CC(C)OC1=CC(=O)N([C@@H](CC2CCCCC2)C(=O)Nc2ccn(CC(C)(C)O)n2)C1` [Example 25, (S)-3-Cyclohexyl-N-[1-(2-hydroxy-2-methyl-propyl)-1H-pyrazol-3-yl]-2-(4-isopropoxy-2-oxo-2,5-dihydro-pyrrol-1-yl)-propionamide]: the “SC1.5 (concentration of activator that produced a 50% increase in the activity of GK)” value worked out at 1.872 µM.

Take `COc1ccccc1OC1=CC(=O)N([C@@H](CC2CCCCC2)C(=O)Nc2ccn(C)n2)C1` [Example 29, (S)-3-Cyclohexyl-N-(1-methyl-1H-pyrazol-3-yl)-2-[4-(2-methoxy-phenoxy)-2-oxo-2,5-dihydro-pyrrol-1-yl]-propionamide]: the “SC1.5 (concentration of activator that produced a 50% increase in the activity of GK)” value is 0.033 µM.

`COc1ccccc1OC1=CC(=O)N([C@@H](CC2CCCCC2)C(=O)Nc2ccn(C[C@H](O)CO)n2)C1` [Example 30, (S)-3-Cyclohexyl-N-[1-((S)-2,3-dihydroxy-propyl)-1H-pyrazol-3-yl]-2-[4-(2-methoxy-phenoxy)-2-oxo-2,5-dihydro-pyrrol-1-yl]-propionamide]: the “SC1.5 (concentration of activator that produced a 50% increase in the activity of GK)” value was found to be 0.031 µM.

As for `CC(C)(O)Cn1ccc(NC(=O)[C@H](CC2CCCCC2)N2CC(Oc3cccc4c3OCCO4)=CC2=O)n1` [Example 33, (S)-3-Cyclohexyl-2-[4-(2,3-dihydro-benzo[1,4]dioxin-5-yloxy)-2-oxo-2,5-dihydro-pyrrol-1-yl]-N-[1-(2-hydroxy-2-methyl-propyl)-1H-pyrazol-3-yl]-propionamide], the “SC1.5 (concentration of activator that produced a 50% increase in the activity of GK)” value came to 0.035 µM.

As to `COc1ccccc1OC1=CC(=O)N(C(CC2CCOCC2)C(=O)Nc2ccn(CC(C)(C)O)n2)C1` (centres unmarked) [Example 34, N-[1-(2-hydroxy-2-methyl-propyl)-1H-pyrazol-3-yl]-2-[4-(2-methoxy-phenoxy)-2-oxo-2,5-dihydro-pyrrol-1-yl]-3-(tetrahydropyran-4-yl)-propionamide], the “SC1.5 (concentration of activator that produced a 50% increase in the activity of GK)” value came out at 0.217 µM.

Take `COc1ccccc1OC1=CC(=O)N(C(COC(C)(C)C)C(=O)Nc2ccn(CC(C)(C)O)n2)C1` (centres unmarked) [Example 35, 3-t-Butoxy-N-[1-(2-hydroxy-2-methyl-propyl)-1H-pyrazol-3-yl]-2-[4-(2-methoxy-phenoxy)-2-oxo-2,5-dihydro-pyrrol-1-yl]-propionamide]: the “SC1.5 (concentration of activator that produced a 50% increase in the activity of GK)” value was 9.491 µM.

As to `CC(C)(O)Cn1ccc(NC(=O)[C@H](CC2CCCCC2)N2CC(Oc3c(F)cccc3F)=CC2=O)n1` [Example 36, (S)-3-Cyclohexyl-2-[4-(2,6-difluoro-phenoxy)-2-oxo-2,5-dihydro-pyrrol-1-yl]-N-[1-(2-hydroxy-2-methyl-propyl)-1H-pyrazol-3-yl]-propionamide], the “SC1.5 (concentration of activator that produced a 50% increase in the activity of GK)” value was 0.028 µM.

Consider `O=C(Nc1ccn(C[C@H](O)CO)n1)[C@H](CC1CCCCC1)N1CC(Oc2c(F)cccc2F)=CC1=O` [Example 37, (S)-3-Cyclohexyl-2-[4-(2,6-difluoro-phenoxy)-2-oxo-2,5-dihydro-pyrrol-1-yl]-N-[1-((S)-2,3-dihydroxy-propyl)-1H-pyrazol-3-yl]-propionamide], for which the “SC1.5 (concentration of activator that produced a 50% increase in the activity of GK)” value was 0.036 µM.

For `O=C(Nc1ccn(C[C@@H](O)CO)n1)[C@H](CC1CCCCC1)N1CC(Oc2c(F)cccc2F)=CC1=O` [Example 38, (S)-3-Cyclohexyl-2-[4-(2,6-difluoro-phenoxy)-2-oxo-2,5-dihydro-pyrrol-1-yl]-N-[1-((R)-2,3-dihydroxy-propyl)-1H-pyrazol-3-yl]-propionamide], the “SC1.5 (concentration of activator that produced a 50% increase in the activity of GK)” value was found to be 0.027 µM.

As to `COC(=O)c1ccc(NC(=O)[C@H](CC2CCCCC2)N2CC(Oc3c(F)cccc3F)=CC2=O)nc1` [Example 39, 6-{(S)-3-Cyclohexyl-2-[4-(2,6-difluoro-phenoxy)-2-oxo-2,5-dihydro-pyrrol-1-yl]-propionylamino}-nicotinic acid methyl ester], the “SC1.5 (concentration of activator that produced a 50% increase in the activity of GK)” value worked out at 0.025 µM.

With `COC(=O)c1ccc(NC(=O)C(CC2CCOCC2)N2CC(Oc3c(F)cccc3F)=CC2=O)nc1` (centres unmarked) [Example 40, 6-[2-[4-(2,6-difluoro-phenoxy)-2-oxo-2,5-dihydro-pyrrol-1-yl]-3-(tetrahydro-pyran-4-yl)-propionylamino]-nicotinic acid methyl ester], the “SC1.5 (concentration of activator that produced a 50% increase in the activity of GK)” value was determined as 0.19 µM.

Turning to `COC(=O)c1ccc(NC(=O)[C@H](CC2CCOCC2)N2CC(Oc3c(F)cccc3F)=CC2=O)nc1` [Example 41, (S)-6-[2-[4-(2,6-difluoro-phenoxy)-2-oxo-2,5-dihydro-pyrrol-1-yl]-3-(tetrahydro-pyran-4-yl)-propionylamino]-nicotinic acid methyl ester], the “SC1.5 (concentration of activator that produced a 50% increase in the activity of GK)” value was determined as 0.071 µM.

Turning to `CC(C)(O)Cn1ccc(NC(=O)C(CC2CCOCC2)N2CC(Oc3c(F)cccc3F)=CC2=O)n1` (centres unmarked) [Example 42, 2-[4-(2,6-Difluoro-phenoxy)-2-oxo-2,5-dihydro-pyrrol-1-yl]-N-[1-(2-hydroxy-2-methyl-propyl)-1H-pyrazol-3-yl]-3-(tetrahydro-pyran-4-yl)-propionamide], the “SC1.5 (concentration of activator that produced a 50% increase in the activity of GK)” value was found to be 0.148 µM.

Turning to `O=C(Nc1ccn(C[C@@H](O)CO)n1)C(CC1CCOCC1)N1CC(Oc2c(F)cccc2F)=CC1=O` (stereo partly drawn) [Example 44, 2-[4-(2,6-Difluoro-phenoxy)-2-oxo-2,5-dihydro-pyrrol-1-yl]-N-[1-((R)-2,3-dihydroxy-propyl)-1H-pyrazol-3-yl]-3-(tetrahydro-pyran-4-yl)-propionamide], the “SC1.5 (concentration of activator that produced a 50% increase in the activity of GK)” value came out at 0.165 µM.

In the case of `CC(C)C[C@@H](C(=O)Nc1ccn(CC(C)(C)O)n1)N1CC(Oc2c(F)cccc2F)=CC1=O` [Example 45, (S)-2-[4-(2,6-difluoro-phenoxy)-2-oxo-2,5-dihydro-pyrrol-1-yl]-4-methyl-pentanoic acid [1-(2-hydroxy-2-methyl-propyl)-1H-pyrazol-3-yl]-amide], the “SC1.5 (concentration of activator that produced a 50% increase in the activity of GK)” value is 0.198 µM.

Turning to `COC(=O)c1ccc(NC(=O)[C@H](CC(C)C)N2CC(Oc3c(F)cccc3F)=CC2=O)nc1` [Example 46, 6-{(S)-2-[4-(2,6-difluoro-phenoxy)-2-oxo-2,5-dihydro-pyrrol-1-yl]-4-methyl-pentanoylamino}-nicotinic acid methyl ester], the “SC1.5 (concentration of activator that produced a 50% increase in the activity of GK)” value is 0.097 µM.
